# Source: patent publication US11697646B2, “Triazole N-linked carbamoyl cyclohexyl acids as LPA antagonists” (BRISTOL-MYERS SQUIBB COMPANY, priority 2017, dated 2023)
# Molecular target: T1, human LPA1 (Homo sapiens, UniProt Q92633)
# T1 construct: expressed in transfected cells; host or cells: Chinese hamster ovary (CHO) cells
# Test: LPA1 functional antagonist assay (calcium flux)
# Assay type: cell-based
# Details: CHO cells overexpressing human LPA1; calcium flux induced by 10 nM LPA; read-out: hLPA1 IC50
# Description: The effectiveness of compounds of the present invention as LPA1 inhibitors can be determined in an LPA1 functional antagonist assay as follows:
# The cells were then equilibrated to room temperature for 30 minutes before the assay. […] IC50 values were determined by fitting data to a 4-parameter logistic equation (GraphPad Prism, San Diego Calif.).
# T1 sequence (Q92633 whole entry): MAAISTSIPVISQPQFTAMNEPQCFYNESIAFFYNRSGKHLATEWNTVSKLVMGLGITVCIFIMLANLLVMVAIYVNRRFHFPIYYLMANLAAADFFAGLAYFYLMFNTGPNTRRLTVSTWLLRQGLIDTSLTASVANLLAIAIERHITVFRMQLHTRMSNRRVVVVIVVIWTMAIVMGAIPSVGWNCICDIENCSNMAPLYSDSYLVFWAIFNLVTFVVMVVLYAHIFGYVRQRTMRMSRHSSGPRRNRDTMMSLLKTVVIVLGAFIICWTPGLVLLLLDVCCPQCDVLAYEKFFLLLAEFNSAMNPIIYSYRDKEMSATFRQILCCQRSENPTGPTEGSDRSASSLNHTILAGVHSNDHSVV
row,IC50,Structure (SMILES)
1,42 nM,"CCCOC(=O)Nc1c(-c2ccc(O[C@H]3CCC[C@H](C(=O)O)C3)cn2)nnn1C [Example 221, (1S,3S)-3-((6-(1-methyl-5-((pro-poxy-carbonyl)amino)-1H-1,2,3-triazol-4-yl)pyridin-3-yl)oxy)cyclohexane-1-carboxylic acid]"
2,60 nM,"Cc1nc(-c2nnn(C)c2NC(=O)OCC2(C)CC2)ccc1O[C@H]1CCC[C@H](C(=O)O)C1 [Example 224, (1S,3S)-3-((2-methyl-6-(1-methyl-5-((((1-methylcyclopropyl)methoxy)carbonyl)amino)-1H-1,2,3-triazol-4-yl)pyridin-3-yl)oxy)cyclohexane-1-carboxylic acid]"
3,17 nM,"CCc1nc(-c2nnn(C)c2NC(=O)OCC(C)C)ccc1O[C@H]1CCC[C@H](C(=O)O)C1 [Example 230, (1S,3S)-3-{[2-ethyl-6-(1-methyl-5-{[(2-methylpropoxy)carbonyl]amino}-1H-1,2,3-triazol-4-yl)pyridin-3-yl]oxy}cyclohexane-1-carboxylic acid]"
4,28 nM,"CCc1nc(-c2nnn(C)c2NC(=O)OCC2CC2)ccc1O[C@H]1CCC[C@H](C(=O)O)C1 [Example 231, (1S,3S)-3-{[6-(5-{[(cyclopropyl-methoxy)carbonyl}amino}-1-methyl-1H-1,2,3-triazol-4-yl)-2-ethylpyridin-3-yl]oxy}cyclohexane-1-carboxylic acid]"

# Second part, the compound before the results:
row,Structure (SMILES),IC50
1,"CCCCOC(=O)Nc1c(-c2ccc(O[C@H]3CCC[C@H](C(=O)O)C3)c(C)n2)nnn1C [Example 222, (1S,3S)-3-((6-(5-((butoxycarbonyl)amino)-1-methyl-1H-1,2,3-triazol-4-yl)-2-methylpyridin-3-yl)oxy)cyclohexane-1-carboxylic acid]",21 nM
2,"Cc1nc(-c2nnn(C)c2NC(=O)OC2CC3(CC3)C2)ccc1O[C@H]1CCC[C@H](C(=O)O)C1 [Example 225, (1S,3S)-3-((2-methyl-6-(1-methyl-5-(((spiro[2.3]hexan-5-yloxy)carbonyl)amino)-1H-1,2,3-triazol-4-yl)pyridin-3-yl)oxy)cyclohexane-1-carboxylic acid]",181 nM
3,"Cc1nc(-c2nnn(C)c2CNS(=O)(=O)NCC2CCCC2)ccc1O[C@H]1CCC[C@H](C(=O)O)C1 [Example 226, (1S,3S)-3-((6-(5-(((N-(cyclopentylmethyl)sulfamoyl)amino)methyl)-1-methyl-1H-1,2,3-triazol-4-yl)-2-methylpyridin-3-yl)oxy)cyclohexane-1-carboxylic acid]",1100 nM
4,"Cc1nc(-c2nnn(C)c2CNS(=O)(=O)NCc2ccccc2)ccc1O[C@H]1CCC[C@H](C(=O)O)C1 [Example 227, (1S,3S)-3-((6-(5-(((N-benzyl-sulfamoyl)amino)methyl)-1-methyl-1H-1,2,3-triazol-4-yl)-2-methyl-pyridin-3-yl)oxy)cyclohexane-1-carboxylic acid]",1800 nM
5,"Cc1nc(-c2nnn(C)c2CN(C)S(=O)(=O)N(C)Cc2ccccc2)ccc1O[C@H]1CCC[C@H](C(=O)O)C1 [Example 228, (1S,3S)-3-((6-(5-(((N-benzyl-N-methyl-sulfamoyl)(methyl)amino)methyl)-1-methyl-1H-1,2,3-triazol-4-yl)-2-methylpyridin-3-yl)oxy)cyclohexane-1-carboxylic acid]",218 nM
6,"CCCCN(C)S(=O)(=O)N(C)Cc1c(-c2ccc(O[C@H]3CCC[C@H](C(=O)O)C3)c(C)n2)nnn1C [Example 229, (1S,3S)-3-((6-(5-(((N-butyl-N-methyl-sulfamoyl)(methyl)amino)methyl)-1-methyl-1H-1,2,3-triazol-4-yl)-2-methylpyridin-3-yl)oxy)cyclohexane-1-carboxylic acid]",110 nM
7,"CCCCOC(=O)Nc1c(-c2ccc(O[C@H]3CCC[C@H](C(=O)O)C3)c(CC)n2)nnn1C [Example 232, (1 S,3 S)-3-[(6-{5-[(butoxycarbonyl)amino]-1-methyl-1H-1,2,3-triazol-4-yl}-2-ethylpyridin-3-yl)oxy]cyclo-hexane-1-carboxylic acid]",12 nM
